“And” between values parts separate entries of the source, which are not always exact repeats. Identical values can stand only once.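 Briefly, cells in 96-well plates were exposed to five compound concentrations for 48 h, and endpoints were estimated by linear interpolation. Abbreviation: GI50, concentration required for 50% inhibition of growth.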 The source made the active and inactive calls. Cut-off read from the data, not from the text of the source: active = GI50 up to about 1.1 µM and inactive = higher.
What was measured:
Test in all cases: NCI anticancer screen, dose series, 48 h
RXF 393 = system: RXF 393
SNB-19 = system: SNB-19
HOP-62 = system: HOP-62
OVCAR-8 = system: OVCAR-8
NCI-H226 = system: NCI-H226
SNB-75 = system: SNB-75
SF-539 = system: SF-539
A549 = system: A549
A498 = system: A498
NCI-H23 = system: NCI-H23
SR = system: SR
HCT-15 = system: HCT-15
MDA-MB-231 = system: MDA-MB-231
786-0 = system: 786-0
IGROV-1 = system: IGROV-1
HOP-92 = system: HOP-92
KM12 = system: KM12
SF-268 = system: SF-268
SW-620 = system: SW-620
COLO 205 = system: COLO 205
SF-295 = system: SF-295
MDA-MB-435 = system: MDA-MB-435
MOLT-4 = system: MOLT-4
HT-29 = system: HT-29
K562 = system: K562
HCT-116 = system: HCT-116
HCC 2998 = system: HCC 2998
UACC-257 = system: UACC-257
SK-MEL-5 = system: SK-MEL-5
T47D = system: T47D
SN12C = system: SN12C
DU-145 = system: DU-145
Malme-3M = system: Malme-3M
UO-31 = system: UO-31
NCI/ADR-RES = system: NCI/ADR-RES
CCRF-CEM = system: CCRF-CEM
EKVX = system: EKVX
LOX IMVI = system: LOX IMVI
SK-MEL-28 = system: SK-MEL-28
OVCAR-4 = system: OVCAR-4
M14 = system: M14
MCF7 = system: MCF7
HL-60 = system: HL-60
U-251 = system: U-251
TK-10 = system: TK-10
RPMI-8226 = system: RPMI-8226
UACC-62 = system: UACC-62
SK-OV-3 = system: SK-OV-3
ACHN = system: ACHN
NCI-H460 = system: NCI-H460
OVCAR-5 = system: OVCAR-5
PC-3 = system: PC-3
OVCAR-3 = system: OVCAR-3
MDA-N = system: MDA-N
Hs-578T = system: Hs-578T
SK-MEL-2 = system: SK-MEL-2
NCI-H522 = system: NCI-H522
CAKI-1 = system: CAKI-1

O=C1NC2(CCN(CCCC3(c4ccc(F)cc4)OCCO3)CC2)Oc2ccccc21
GI50 (RXF 393): > 100 µM (inactive) | GI50 (SNB-19): > 100 µM (inactive) | GI50 (HOP-62): > 100 µM (inactive) | GI50 (OVCAR-8): > 100 µM (inactive) | GI50 (NCI-H226): > 100 µM (inactive) | GI50 (SNB-75): 43.1 µM (inactive) | GI50 (SF-539): 42.9 µM (inactive) | GI50 (A549): > 100 µM (inactive) | GI50 (A498): 21.3 µM (inactive) | GI50 (NCI-H23): > 100 µM (inactive) | GI50 (SR): 39.7 µM (inactive) | GI50 (HCT-15): 71.4 µM | GI50 (MDA-MB-231): > 100 µM (inactive) | GI50 (786-0): > 100 µM (inactive) | GI50 (IGROV-1): > 100 µM (inactive) | GI50 (HOP-92): 23.7 µM (inactive) | GI50 (KM12): > 100 µM (inactive) | GI50 (SF-268): > 100 µM (inactive) | GI50 (SW-620): > 100 µM (inactive) | GI50 (COLO 205): 86.7 µM (inactive) | GI50 (SF-295): > 100 µM (inactive) | GI50 (MDA-MB-435): > 100 µM (inactive) | GI50 (MOLT-4): 51.8 µM (inactive) | GI50 (HT-29): 42.4 µM (inactive) | GI50 (K562): 64.4 µM (inactive) | GI50 (HCT-116): > 100 µM (inactive) | GI50 (HCC 2998): > 100 µM (inactive) | GI50 (UACC-257): 57.3 µM (inactive) | GI50 (SK-MEL-5): 69.5 µM (inactive) | GI50 (T47D): 35.8 µM (inactive) | GI50 (SN12C): > 100 µM (inactive) | GI50 (DU-145): > 100 µM (inactive) | GI50 (Malme-3M): > 100 µM (inactive) | GI50 (UO-31): 12.7 µM (inactive) | GI50 (NCI/ADR-RES): 97.9 µM (inactive) | GI50 (CCRF-CEM): > 100 µM (inactive) | GI50 (EKVX): 39.4 µM (inactive) | GI50 (LOX IMVI): > 100 µM (inactive) | GI50 (SK-MEL-28): > 100 µM (inactive) | GI50 (OVCAR-4): > 100 µM (inactive) | GI50 (M14): 73.5 µM (inactive) | GI50 (MCF7): 86.7 µM (inactive) | GI50 (HL-60): 42.7 µM (inactive) | GI50 (U-251): > 100 µM (inactive) | GI50 (TK-10): > 100 µM (inactive) | GI50 (RPMI-8226): 61 µM (inactive) | GI50 (UACC-62): > 100 µM (inactive) | GI50 (SK-OV-3): > 100 µM (inactive) | GI50 (ACHN): > 100 µM (inactive) | GI50 (NCI-H460): 91.2 µM (inactive) | GI50 (OVCAR-5): > 100 µM (inactive)

CC[C@H](CCCCC1CC[C@@H]2CC(=O)C[C@H]12)OC (some centres not stated)
GI50 (RXF 393): > 100 µM (inactive) | GI50 (A549): > 100 µM (inactive) | GI50 (PC-3): > 100 µM (inactive) | GI50 (A498): > 100 µM (inactive) | GI50 (HCT-15): > 100 µM | GI50 (OVCAR-3): > 100 µM (inactive) | GI50 (SF-268): > 100 µM (inactive) | GI50 (SW-620): > 100 µM (inactive) | GI50 (SF-295): > 100 µM (inactive) | GI50 (SN12C): > 100 µM (inactive) | GI50 (DU-145): > 100 µM (inactive) | GI50 (UO-31): 93.8 µM (inactive) | GI50 (EKVX): > 100 µM (inactive) | GI50 (SK-MEL-28): > 100 µM (inactive) | GI50 (MCF7): > 100 µM (inactive) | GI50 (U-251): > 100 µM (inactive) | GI50 (MDA-N): > 100 µM (inactive) | GI50 (OVCAR-5): > 100 µM (inactive)

C/C(=C\COP(=O)(O)OP(=O)(O)O)CC/C=C(\C)CNc1ccc([N+](=O)[O-])cc1
GI50 (RXF 393): > 100 µM (inactive) | GI50 (SNB-19): > 100 µM (inactive) | GI50 (HOP-62): > 100 µM (inactive) | GI50 (OVCAR-8): > 100 µM (inactive) | GI50 (NCI-H226): > 100 µM (inactive) | GI50 (SNB-75): > 100 µM (inactive) | GI50 (SF-539): > 100 µM (inactive) | GI50 (A549): > 100 µM (inactive) | GI50 (PC-3): > 100 µM (inactive) | GI50 (NCI-H23): > 100 µM (inactive) | GI50 (SR): > 100 µM (inactive) | GI50 (HCT-15): > 100 µM | GI50 (MDA-MB-231): > 100 µM (inactive) | GI50 (786-0): > 100 µM (inactive) | GI50 (IGROV-1): > 100 µM (inactive) | GI50 (HOP-92): > 100 µM (inactive) | GI50 (KM12): > 100 µM (inactive) | GI50 (OVCAR-3): > 100 µM (inactive) | GI50 (SF-268): > 100 µM (inactive) | GI50 (SW-620): > 100 µM (inactive) | GI50 (Hs-578T): > 100 µM (inactive) | GI50 (COLO 205): > 100 µM (inactive) | GI50 (SF-295): > 100 µM (inactive) | GI50 (MDA-MB-435): > 100 µM (inactive) | GI50 (MOLT-4): > 100 µM (inactive) | GI50 (HT-29): > 100 µM (inactive) | GI50 (K562): > 100 µM (inactive) | GI50 (HCT-116): > 100 µM (inactive) | GI50 (UACC-257): 71.8 µM (inactive) | GI50 (SK-MEL-5): > 100 µM (inactive) | GI50 (T47D): > 100 µM (inactive) | GI50 (SN12C): > 100 µM (inactive) | GI50 (DU-145): > 100 µM (inactive) | GI50 (Malme-3M): > 100 µM (inactive) | GI50 (UO-31): > 100 µM (inactive) | GI50 (NCI/ADR-RES): > 100 µM (inactive) | GI50 (CCRF-CEM): > 100 µM (inactive) | GI50 (SK-MEL-2): > 100 µM (inactive) | GI50 (EKVX): > 100 µM (inactive) | GI50 (LOX IMVI): > 100 µM (inactive) | GI50 (SK-MEL-28): > 100 µM (inactive) | GI50 (OVCAR-4): > 100 µM (inactive) | GI50 (M14): > 100 µM (inactive) | GI50 (NCI-H522): > 100 µM (inactive) | GI50 (MCF7): > 100 µM (inactive) | GI50 (HL-60): > 100 µM (inactive) | GI50 (U-251): > 100 µM (inactive) | GI50 (TK-10): > 100 µM (inactive) | GI50 (RPMI-8226): > 100 µM (inactive) | GI50 (UACC-62): > 100 µM (inactive) | GI50 (SK-OV-3): > 100 µM (inactive) | GI50 (CAKI-1): > 100 µM (inactive) | GI50 (ACHN): > 100 µM (inactive) | GI50 (NCI-H460): > 100 µM (inactive) | GI50 (OVCAR-5): > 100 µM (inactive)

CC(=O)OCC1OC(Sc2nc(-c3ccc(Cl)cc3)c(C#N)c(=O)n2C2OC(COC(C)=O)C(OC(C)=O)C(OC(C)=O)C2OC(C)=O)C(OC(C)=O)C(OC(C)=O)C1OC(C)=O (configuration not stated)
GI50 (SR): 30.3 µM (inactive) | GI50 (MOLT-4): 50.4 µM (inactive) and > 26.4 µM (inactive) | GI50 (OVCAR-4): 3.45 µM (inactive) | GI50 (HL-60): 3.82 µM (inactive) | GI50 (RPMI-8226): 35.9 µM (inactive)

O=C1Sc2ccccc2/C1=N/Nc1ccccc1[N+](=O)[O-]
GI50 (SNB-19): > 100 µM (inactive) | GI50 (HOP-62): > 100 µM (inactive) | GI50 (OVCAR-8): 56.4 µM (inactive) | GI50 (NCI-H226): > 100 µM (inactive) | GI50 (SNB-75): 0.281 µM (active) | GI50 (SF-539): 69.5 µM (inactive) | GI50 (A549): > 100 µM (inactive) | GI50 (PC-3): > 100 µM (inactive) | GI50 (A498): > 100 µM (inactive) | GI50 (NCI-H23): > 100 µM (inactive) | GI50 (SR): > 100 µM (inactive) | GI50 (HCT-15): > 100 µM | GI50 (IGROV-1): > 100 µM (inactive) | GI50 (HOP-92): > 100 µM (inactive) | GI50 (KM12): > 100 µM (inactive) | GI50 (OVCAR-3): > 100 µM (inactive) | GI50 (SF-268): 36.6 µM (inactive) | GI50 (SW-620): > 100 µM (inactive) | GI50 (Hs-578T): 36.1 µM (inactive) | GI50 (COLO 205): > 100 µM (inactive) | GI50 (SF-295): > 100 µM (inactive) | GI50 (MDA-MB-435): > 100 µM (inactive) | GI50 (MOLT-4): > 100 µM (inactive) | GI50 (HT-29): > 100 µM (inactive) | GI50 (K562): > 100 µM (inactive) | GI50 (HCT-116): > 100 µM (inactive) | GI50 (HCC 2998): > 100 µM (inactive) | GI50 (UACC-257): > 100 µM (inactive) | GI50 (SK-MEL-5): 65.2 µM (inactive) | GI50 (T47D): 10.2 µM (inactive) | GI50 (DU-145): > 100 µM (inactive) | GI50 (Malme-3M): 94.8 µM (inactive) | GI50 (UO-31): > 100 µM (inactive) | GI50 (CCRF-CEM): > 100 µM (inactive) | GI50 (SK-MEL-2): > 100 µM (inactive) | GI50 (EKVX): > 100 µM (inactive) | GI50 (LOX IMVI): > 100 µM (inactive) | GI50 (SK-MEL-28): > 100 µM (inactive) | GI50 (OVCAR-4): 36.1 µM (inactive) | GI50 (M14): > 100 µM (inactive) | GI50 (NCI-H522): > 100 µM (inactive) | GI50 (MCF7): 17 µM (inactive) | GI50 (HL-60): > 100 µM (inactive) | GI50 (U-251): > 100 µM (inactive) | GI50 (TK-10): > 100 µM (inactive) | GI50 (RPMI-8226): > 100 µM (inactive) | GI50 (UACC-62): > 100 µM (inactive) | GI50 (SK-OV-3): 86.9 µM (inactive) | GI50 (MDA-N): 57 µM (inactive) | GI50 (CAKI-1): 77.3 µM (inactive) | GI50 (ACHN): 93.1 µM (inactive) | GI50 (NCI-H460): > 100 µM (inactive) | GI50 (OVCAR-5): > 100 µM (inactive)

From ChEMBL document CHEMBL1201862, “PubChem BioAssay data set” (2004)
